Values quoted from earlier work as cited in patent publication US7914804B2, “Slow release pharmaceutical preparation and method of administering same” (Palmaya Pty Ltd, priority 2001, dated 2011).

Compound | t1/2 (in the body) | effectiveness relative to Naloxone (thought to be) | lasting in the body relative to Naloxone (thought to be) [times]
C=CCN1CC[C@]23c4c5ccc(O)c4O[C@H]2C(=O)CC[C@@]3(O)[C@H]1C5 [Naloxone] | ½ | – | –
O=C1CC[C@@]2(O)[C@H]3Cc4ccc(O)c5c4[C@@]2(CCN3CC2CC2)[C@H]1O5 [Naltrexone] | – | twice as effective | 8
